Measured values published in patent US20220235065A1 (Epizyme, Inc., priority 2016, published 2022).

Target: T1, recombinant purified human EHMT2 913-1193 (Homo sapiens, UniProt Q96KQ7)
T1 construct: Recombinant purified human EHMT2 913-1193 (55 μM) synthesized by Viva was used for all experiments; purchased Viva
T1 sequence (Q96KQ7 913-1193): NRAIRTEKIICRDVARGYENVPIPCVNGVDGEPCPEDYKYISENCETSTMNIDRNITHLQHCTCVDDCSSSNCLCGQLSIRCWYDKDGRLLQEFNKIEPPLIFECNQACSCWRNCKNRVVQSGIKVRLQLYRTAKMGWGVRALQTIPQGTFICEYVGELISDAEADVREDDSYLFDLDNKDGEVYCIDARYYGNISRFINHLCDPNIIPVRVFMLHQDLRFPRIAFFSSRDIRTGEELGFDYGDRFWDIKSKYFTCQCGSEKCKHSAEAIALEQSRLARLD
Test: EHMT2 enzyme assay on histone peptide substrate (3H-SAM Flashplate)
Type: biochemical
Conditions: read-out: EHMT2 PEP (IC50 μM)
Experimental: Recombinant purified human EHMT2 913-1193 (55 μM) synthesized by Viva was used for all experiments. Biotinylated histone peptides were synthesized by Biopeptide and HPLC-purified to >95% purity. Streptavidin Flashplates and seals were purchased from PerkinElmer and 384 Well V-bottom Polypropylene Plates were from Greiner. ^3H-labeled S-adenosylmethionine (3H-SAM) was obtained from American Radiolabeled Chemicals with a specific activity of 80 Ci/mmol. Unlabeled SAM and S-adenosylhomocysteine (SAH) were obtained from American Radiolabeled Chemicals and Sigma-Aldrich respectively. Flashplates were washed in a Biotek ELx-405 with 0.1% Tween. 384-well Flashplates and 96-well filter binding plates were read on a TopCount microplate reader (PerkinElmer). Compound serial dilutions were performed on a Freedom EVO (Tecan) and spotted into assay plates using a Thermo Scientific Matrix PlateMate (Thermo Scientific). Reagent cocktails were added by Multidrop Combi (Thermo Scientific).
General Procedure for EHMT2 Enzyme Assay on Histone Peptide Substrate.
10-point curves of test compounds were made on a Freedom EVO (Tecan) using serial 3-fold dilutions in DMSO, beginning at 2.5 mM (final top concentration of compound was 50 μM and the DMSO was 2%). A 1 μL aliquot of the inhibitor dilution series was spotted in a polypropylene 384-well V-bottom plate (Greiner) using a Thermo Scientific Matrix PlateMate (Thermo Scientific). The 100% inhibition control consisted of 1 mM final concentration of the product inhibitor S-adenosylhomocysteine (SAH, Sigma-Aldrich). Compounds were incubated for 30 minutes with 40 μL per well of 0.031 nM EHMT2 (recombinant purified human EHMT2 913-1193, Viva) in 1× assay buffer (20 mM Bicine [pH 7.5], 0.002% Tween 20, 0.005% Bovine Skin Gelatin and 1 mM TCEP). 10 μL per well of substrate mix comprising assay buffer, ^3H-SAM (3H-labeled S-adenosylmethionine, American Radiolabeled Chemicals, specific activity of 80 Ci/mmol), unlabeled SAM (American Radiolabeled Chemicals), and peptide representing histone H3 residues 1-15 containing C-terminal biotin (appended to a C-terminal amide-capped lysine, synthesized by Biopeptide and HPLC-purified to greater than 95% purity) were added to initiate the reaction (both substrates were present in the final reaction mixture at their respective Km values, an assay format referred to as “balanced conditions”). Reactions were incubated for 60 minutes at room temperature and quenched with 10 μL per well of 400 μM unlabeled SAM, then transferred to a 384-well streptavidin Flashplate (PerkinElmer) and washed in a Biotek ELx-405 well washer with 0.1% Tween after 60 minutes. 384-well Flashplates were read on a TopCount microplate reader (PerkinElmer).
IC50 curves were generated using triplicate wells per concentration of compound. The IC50 is the concentration of compound at which measured methylation is inhibited by 50% as interpolated from the dose response curves. IC50 values were calculated using a non-linear regression (variable slope-four parameter fit model) with by the following formula
where Top is fixed at 100% and Bottom is fixed to 0%, [I]=concentration of inhibitor, IC50=half maximal inhibitory concentration and n=Hill Slope.

SMILES | IC50
CNc1cc(C)nc(Nc2ccc(OC)c(-n3cc(C(C)(C)NC)nn3)c2)n1 [Compound 166] | > 10 µM
COc1cc(NC2CCNCC2)ccc1-c1cc(C2CC2)cnn1 [Compound 236] | > 10 µM
CNc1cc(C)nc(Nc2ccc(OC)c(-c3cc(C4CC4)ncn3)c2)n1 [Compound 232] | > 10 µM
CNc1cc(C)nc(Nc2ccc(OC)c(-n3cc4cc(Br)ccc4n3)c2)n1 [Compound 148] | 1 to 10 µM
CNc1cc(C)nc(Nc2ccc(OC)c(-c3cn4c(n3)CN(C)CC4)c2)n1 [Compound 6] | > 10 µM
CNCc1cnn(-c2c(OC)ccc(Nc3nc(C)cc(NC)n3)c2OC)c1 [Compound 222] | 0.1 to 1 µM
CNc1cc(C)nc(Nc2ccc(OC)c(-c3cc4cnccc4n3C)c2)n1 [Compound 158] | 0.1 to 1 µM
CNc1cc(C)nc(Nc2ccc(OC)c(-c3cc4[nH]cnc4cn3)c2)n1 [Compound 210] | 1 to 10 µM
CNc1cc(C)nc(Nc2ccc(OC)c(-c3cn[nH]c3)c2)n1 [Compound 12, 2-N-[4-methoxy-3-(1H-pyrazol-4-yl)phenyl]-4-N,6-dimethylpyrimidine-2,4-diamine] | > 10 µM
CNc1cc(C)nc(Nc2ccc(OC)c(-c3cn4ccnc4cn3)c2)n1 [Compound 234] | > 10 µM
COc1cc(NC2CCNCC2)ncc1-c1cc2[nH]ccc2cn1 [Compound 208] | 1 to 10 µM
CNc1cc(C)nc(Nc2ccc(OC)c(-c3cc4ncncc4[nH]3)c2)n1 [Compound 201] | 1 to 10 µM

More lines, now with the values ahead:

IC50 | SMILES
0.1 to 1 µM | CNc1cc(C)nc(Nc2ccc(OC)c(-n3cc4cncc(C)c4n3)c2)n1 [Compound 151]
< 0.1 µM | CNC1=Nc2cc(-n3cc([C@H]4CCCN4)nn3)c(OC)cc2C12CCC2 [Compound 192]
< 0.1 µM | CNCc1cn(-c2cc(Nc3nc(C)cc(NC)n3)ccc2OC)nn1 [Compound 159, N2-(4-methoxy-3-(4-((methylamino)methyl)-1H-1,2,3-triazol-1-yl)phenyl)-N4,6-dimethylpyrimidine-2,4-diamine]
< 0.1 µM | CNc1cc(C)nc(Nc2ccc(OC)c(-c3cc4[nH]ccc4cn3)c2)n1 [Compound 206, N2-(4-methoxy-3-(1H-pyrrolo[3,2-c]pyridin-6-yl)phenyl)-N4,6-dimethylpyrimidine-2,4-diamine]
< 0.1 µM | CNc1cc(C)nc(Nc2ccc(OC)c(-c3cc4[nH]ccc4nc3C)c2)n1 [Compound 228]
< 0.1 µM | CNC1=Nc2cc(-c3[nH]c4cnccc4c3Cl)c(OC)cc2C12CCC2 [Compound 216]
< 0.1 µM | COc1cc2c(cc1-c1cc3ccncc3[nH]1)N=C(N)C21CCC1 [Compound 202]
< 0.1 µM | CNc1cc(C)nc(Nc2ccc(OC)c(-c3[nH]c4cnccc4c3C)c2)n1 [Compound 200, N2-(4-methoxy-3-(3-methyl-1H-pyrrolo[2,3-c]pyridin-2-yl)phenyl)-N4,6-dimethylpyrimidine-2,4-diamine]
< 0.1 µM | COc1cc2c(cc1-n1cc(C3CCCN3)nn1)N=C(N)C21CCC1 (stereo not drawn) [Compound 194]
